Laboratory results from US4681879A, “11-substituted 5H,11H-pyrrolo[2,1-c][1,4]benzoxazepines as antipsychotic and analgesic agents” (Hoechst-Roussel Pharmaceuticals Inc., priority 1985, dated 1987).
Structures can show the parent of a compound that is named as a salt.

Tests used:
apomorphine climbing = test: Antipsychotic activity, climbing mice assay (apomorphine); assay type: in vivo, mice (CK-1 male); settings: Mus musculus; ip, 30 minutes prior to apomorphine 1.5 mg/kg sc
Description: Antipsychotic activity is determined in the climbing mice assay by methods similar to those described by P. Protais, et al., Psychopharmacol., 50, 1 (1976) and B. Costall, Eur. J. Pharmacol., 50, 39 (1978).
The subject CK-1 male mice (23-27 grams) are group-housed under standard laboratory conditions. The mice are individually placed in wire mesh stick cages (4"×4" by 10") and are allowed one hour for adaptation and exploration of the new environment. Then apomorphine is injected subcutaneously at 1.5 mg/kg, a dose causing climbing in all subjects for 30 minutes. Compounds to be tested for antipsychotic activity are injected intraperitoneally 30 minutes prior to the apomorphine challenge at a screening dose of 10 mg/kg.
For evaluation of climbing, 3 readings are taken at 10, 20 and 30 minutes after apomorphine administration according to the following scale: […]
______________________________________
4 paws on bottom (no climbing)
2 paws on the wall (rearing)
4 paws on the wall (full climb)
Mice consistently climbing before the injection of apomorphine are discarded.
With full-developed apomorphine climbing, the animals are hanging onto the cage walls, rather motionless, over longer periods of time. By contrast, climbs due to mere motor stimulation usually last only a few seconds.
The climbing scores are individually totaled (maximum score: 6 per mouse over 3 readings) and the total score of the control group (vehicle intraperitoneally-apomorphine subcutaneously) is seet to 100%. ED50 values with 95% confidence limits, calculated by a linear regression analysis of some of the compounds of this invention are presented in Table 1.

[1] = test system: 2-phenyl-1,4-benzoquinone-induced writhing; test: Analgesic activity, 2-phenyl-1,4-benzoquinone-induced writhing test in mice; assay type: in vivo; settings: Mus musculus, sc; read-out: ANALGESIC ACTIVITY (Phenylquinone Writhing) ED50
Source text: Compounds of the present invention are useful as analgesic agents due to their ability to alleviate pain in mammals. […] Exptl. Biol. Med., 95, 729 (1957)].

Row | SMILES | ED50 (apomorphine climbing) [mg/kg] | ED50 [1] [mg/kg]
1 | COc1cccc(CCN2CCC(C3Oc4ccccc4Cn4cccc43)CC2)c1 (stereo not drawn) [11-{1-[2-(3-Methoxyphenyl)ethyl]piperidin-4-yl}-5H,11H-pyrrolo[2,1-c][1,4]benzoxazepine] | 0.9 | 
2 | COc1ccc(CCN2CCC(C3Oc4ccccc4Cn4cccc43)CC2)cc1.O=C(O)C(=O)O (stereo not drawn) [11-{1-[2-(4-Methoxyphenyl)ethyl]piperidin-4-yl}-5H,11H-pyrrolo[2,1-c][1,4]benzoxazepine oxalate] | 0.3 | 0.3
3 | c1ccc(CCCN2CCC(C3Oc4ccccc4Cn4cccc43)CC2)cc1 (stereo not drawn) [11-{1-[3-(Phenyl)propyl]piperidin-4-yl}-5H,11H-pyrrolo[2,1-c][1,4[benzoxazepine oxalate] | 2 | 
4 | Clc1ccc(CCN2CCC(C3Oc4ccccc4Cn4cccc43)CC2)cc1 (stereo not drawn) [11-{1-[2-(4-Chlorophenylethyl)]piperidin-4-yl}-5H,11H-pyrrolo[2,1-c][1,4]benzoxazepine] | 2.1 | 
5 | Cc1[nH]c2ccccc2c1CCCN1CCC(C2Oc3ccccc3Cn3cccc32)CC1.O=C(O)C(=O)O (stereo not drawn) [11-{1-[3-(2-Methylindol-3-yl)propyl]piperidin-4-yl}-5H,11H-pyrrolo[2,1-c][1,4]benzoxazepine oxalate] | 2.3 | 
6 | c1csc(CCN2CCC(C3Oc4ccccc4Cn4cccc43)CC2)c1 (stereo not drawn) [11-{1-[2-(2-Thienyl)ethyl]piperidin-4-yl}-5H,11H-pyrrolo[2,1-c][1,4benzoxazepine] | 1.8 | 
7 | CCOc1ccc(CCN2CCC(C3Oc4ccccc4Cn4cccc43)CC2)cc1 (stereo not drawn) [11-{1-[2-(4-Ethoxyphenylethyl)]piperidin-4-yl}-5H,11H-pyrrolo[2,1-c][1,4]benzoxaxepine] | 1.3 | 1.9
8 | O=[N+]([O-])c1ccc(CCN2CCC(C3Oc4ccccc4Cn4cccc43)CC2)cc1 (stereo not drawn) [11-{1-[2-(4-Nitrophenylethyl)]piperidin-4-yl}-5H,11H-pyrrolo[2,1-c][1,4]benzoxazepine] | 3.5 | 4.1
9 | Fc1ccc2c(CCCN3CCC(C4Oc5ccccc5Cn5cccc54)CC3)noc2c1.O=C(O)C(=O)O (stereo not drawn) [11-{1-[3-(6-Fluoro-1,2-benzisoxazol-3-yl)propyl]piperidin-4-yl}-5H,11H-pyrrolo[2,1-c][1,4]benzoxazepine oxalate] | 2.1 | 5.1
10 | O=C(CCN1CCC(C2Oc3ccccc3Cn3cccc32)CC1)c1ccccc1.O=C(O)C(=O)O (stereo not drawn) [1-Phenyl-3-[4-[5H,11H-pyrrolo[2,1-c][1,4]benzoxazepin-11-yl]-1-piperidinyl]-1-propanone oxalate] | 1.6 | 1.6
11 | Fc1ccc(CCN2CCC(C3Oc4ccccc4Cn4cccc43)CC2)cc1.O=C(O)C(=O)O (stereo not drawn) [11-{1-[2-(4-Fluorophenyl)ethyl]piperidin-4-yl}-5H,11H-pyrrolo[2,1-c][1,4]benzoxazepine oxalate] | 3.1 | 
12 | O=C(O)C(=O)O.c1ccc(CCN2CCC(C3Oc4ccccc4Cn4cccc43)CC2)cc1 (stereo not drawn) [11-{1-[2-(Phenyl)ethyl]piperidin-4-yl}-5H,11H-pyrrolo[2,1-c][1,4]benzoxazepine oxalate] | 3.1 | 
13 | Cc1ccc(CCN2CCC(C3Oc4ccccc4Cn4cccc43)CC2)cc1 (stereo not drawn) [11-{1-[2-(4-Methylphenyl)ethyl]piperidin-4-yl}-5H,11H-pyrrolo[2,1-c][1,4]benzoxazepine] | 1.2 | 
14 | COc1cccc(CCN2CCC(C3Oc4ccccc4Cn4cccc43)CC2)c1OC.O=C(O)/C=C/C(=O)O (stereo not drawn) [11-{1-[2-(2,3-Dimethoxyphenyl)ethyl]piperidin-4-yl}-5H,11H-pyrrolo[2,1-c][1,4]benzoxazepine fumarate] | 3 | 
15 | Oc1ccc(CCN2CCC(C3Oc4ccccc4Cn4cccc43)CC2)cc1 (stereo not drawn) [11-{1-[2-(4-Hydroxyphenyl)ethyl]piperidin-4-yl}-5H,11H-pyrrolo[2,1-c][1,4]benzoxazepine] | 0.3 | 
16 | CN(C)c1ccc(CCN2CCC(C3Oc4ccccc4Cn4cccc43)CC2)cc1 (stereo not drawn) [11-{1-[2-(4-Dimethylaminophenylethyl)]piperidin-4-yl}-5H,11H-pyrrolo[2,1-c][1,4]benzoxazepine] | 1.2 | 0.4
17 | O=C(O)C(=O)O.O=c1[nH]c2ccccc2n1CCN1CCC(C2Oc3ccccc3Cn3cccc32)CC1 (stereo not drawn) [11-{1-[2-(1,3-Dihydro-2-oxo-2H-benzimidazol-1-yl)ethyl]piperidin-4-yl}-5H,11H-pyrrolo[2,1-c][1,4]benzoxazepine oxalate] | 3.2 | 0.9
18 | COc1ccc(CCN2CCC(C3Oc4ccccc4Cn4cccc43)CC2)cc1OC (stereo not drawn) [11-{1-[2-(3,4-Dimethoxyphenyl)ethyl]piperidin-4-yl}-5H,11H-pyrrolo[2,1-c][1,4]benzoxazepine] | 0.3 | 0.1
19 | O=C(O)C(=O)O.O=c1[nH]c2ccccc2n1CCCN1CCC(C2Oc3ccccc3Cn3cccc32)CC1 (stereo not drawn) [11-{1-[3-(1,3-Dihydro-2-oxo-2H-benzimidazol-1-yl)propyl]piperidin-4-yl}-5H,11H-pyrrolo[2,1-c][1,4]benzoxazepine oxalate] | 0.7 | 0.3
20 | c1ccc(OCCCN2CCC(C3Oc4ccccc4Cn4cccc43)CC2)cc1 (stereo not drawn) [11-{1-[3-(Phenoxy)propyl]piperidin-4-yl}-5H,11H-pyrrolo[2,1-c][1,4]benzoxazepine] | 1.2 | 4.2
21 | O=C(CCN1CCC(C2Oc3ccccc3Cn3cccc32)CC1)c1ccc(Cl)cc1 (stereo not drawn) [1-(4-Chlorophenyl)-3-[4-]5H,11H-pyrrolo[2,1-c][1,4]benzoxazepin-11-yl]-1-piperidinyl]-1-propanone] | 5.5 | 
22 | CCCCN1CCC(C2Oc3ccccc3Cn3cccc32)CC1 (stereo not drawn) [11-[(1-Butyl)piperidin-4-yl]-5H,11H-pyrrolo[2,1-c][1,4]benzoxazepine] | 3.8 | 0.4
